According to publication PMC3909880 (Nature communications, 2013):
Values after ≈ are worked out from the molar mass of the structure shown.

What was measured:
M. tuberculosis H37Rv [1] = test: microbe, parasite or virus in culture; type: cell-based, Mycobacterium tuberculosis; conditions: for MIC: Mycobacterium tuberculosis, H37RV, read-out: MIC for H37Rv; for MIC for H37Rv: M. tuberculosis H37Rv parental strain
M. tuberculosis H37Rv [2] = type: in vivo, Mycobacterium tuberculosis; conditions: 10 mg/kg oral gavage daily (5 days per week), BALB/c mice
[3] = system: M. tuberculosis strains H37Rv, V4207, V2475, KZN494, TF274, R506; conditions: MDR strains V2475 and KZN494; cited from earlier work

Row | Compound | MIC (M. tuberculosis H37Rv [1]) | further results
1 | NCC[C@H](O)C(=O)N[C@@H]1C[C@H](N)[C@@H](O[C@H]2O[C@H](CN)[C@@H](O)[C@H](O)[C@H]2O)[C@H](O)[C@H]1O[C@H]1O[C@H](CO)[C@@H](O)[C@H](N)[C@H]1O [Amikacin] | 1 µg/mL (≈ 1.71 µM) | 
2 | CC[C@@H](CO)NCCN[C@@H](CC)CO [Ethambutol] | 1 µg/mL (≈ 4.89 µM) | 
3 | NNC(=O)c1ccncc1 [Isoniazid] | 0.04 µg/mL (≈ 0.292 µM) | Mean lung CFU counts (standard deviation), Day 7 (M. tuberculosis H37Rv [2]): 5.508 (0.124) log10 CFU/lung; Mean lung CFU counts (standard deviation), Day 14 (M. tuberculosis H37Rv [2]): 5.266 (0.089) log10 CFU/lung; Mean lung CFU counts (standard deviation), Day 28 (M. tuberculosis H37Rv [2]): 4.561 (0.088) log10 CFU/lung; Susceptibility of the MDR strains [3]: resistant
4 | NC[C@H]1O[C@H](O[C@H]2[C@H](O)[C@@H](O[C@H]3O[C@H](CO)[C@@H](O)[C@H](N)[C@H]3O)[C@H](N)C[C@@H]2N)[C@H](O)[C@@H](O)[C@@H]1O [Kanamycin] |  | MIC for H37Rv (M. tuberculosis H37Rv [1]): 2 µg/mL
5 | C[C@H]1COc2c(N3CCN(C)CC3)c(F)cc3c(=O)c(C(=O)O)cn1c23 [Levofloxacin] | 0.25 µg/mL (≈ 0.692 µM) | 
6 | COc1c(N2C[C@@H]3CCCN[C@@H]3C2)c(F)cc2c(=O)c(C(=O)O)cn(C3CC3)c12 [Moxifloxacin] | 0.0625 to 0.125 µg/mL (≈ 0.156 to 0.311 µM) | 
7 | CO[C@H]1/C=C/O[C@@]2(C)Oc3c(C)c(O)c4c(O)c(c(/C=N/N5CCN(C)CC5)c(O)c4c3C2=O)NC(=O)/C(C)=C\C=C\[C@H](C)[C@H](O)[C@@H](C)[C@@H](O)[C@@H](C)[C@H](OC(C)=O)[C@@H]1C [Rifampin] | 0.125 µg/mL (≈ 0.152 µM) | Susceptibility of the MDR strains [3]: resistant
8 | CC(C)=CCC/C(C)=C/CNCCNC1C2CC3CC(C2)CC1C3 (centres unmarked) [SQ109] | 0.25 µg/mL (≈ 0.756 µM) | 
9 | Capreomycin |  | MIC for H37Rv (M. tuberculosis H37Rv [1]): 1 µg/mL
